Test results: patent US20150329512A1, “METHOD AND PHARMACEUTICAL COMPOSITION FOR TREATING LUNG CANCER” (National Dong Hua University, priority 2014, published 2015)

Key:
Assay type in all cases: cell-based, human
A549 cells [1] = test: Cell cycle analysis by flow cytometer (PI staining); details: for G0/G1 (%) / G2/M (%) / S (%) / Sub G1 (%): 24 hr, Table 7 (head prints Anti-Dox-A549; b90: A549 cells)
Protocol: (§1) The results of Example 2 in cell viability hinted the effects of HCD, PG, and Dox on arresting cell cycle. In this example, the phase of cell cycle of A549 cells and Anti-Dox-A549 cells after the treatment listed in Table 1 was determined by flow cytometer. Briefly, 7×10^4 cells per well were to inoculated in 12-wells plate and incubated overnight at 37° C., 5% CO2. Then, cells were treated according to the treatment listed in Table 1 by indicated time period. After treatment, cells were harvested by trypsin and fixed with 70% ethanol at −20° C. for at least 3 hr. The cells were washed in cold PBS twice and then incubated with 1 ml (v/v) staining solution (20 μg/m1 propidium iodide (PI), 0.1% Triton X-100, 0.2 mg/ml Rnase) at 37° C. for 30 minutes. Lastly, cells were analyzed by flow cytometer (Cytomics™ FC500, Backman, Fullerton, Calif., USA). Data from 10,000 cells were collected for each experimental group.

Anti-Dox-A549 cells [2] = test: as above; details: for G0/G1 (%) / G2/M (%) / S (%) / Sub G1 (%): 24 hr, Anti-Dox-A549 (Table 6)
Protocol: as §1

A549 cells [3] = test: MTT assay, cell viability; details: Homo sapiens, 24 hr treatment
Protocol: (§2) A549 (lung cancer cell line, non-resistance) and Anti-Dox-A549 (lung cancer cell line with resistance to Doxorubicin) were maintained in DMEM supplemented with 10% fetal bovine serum (FBS, Gibco), pH 7.4, 37° C. and with continuous circulation of 5% CO2. The medium was changed every 2 days and the cells were trypsinized with trypsin/EDTA when reaching 80%-90% confluence.
(§3) A549 and Anti-Dox-A549 were treated by the following treatment (Table 1) for 24 or 48 hr for examining the effects of HCD, PG, and Dox on their viability.
(§4) Dox1is referred as Dox of 1 μM; Dox2.5 is referred as Dox of 2.5 μM; Dox5 is referred as Dox of 5 μM; Dox10 is referred as Dox of 10 μM; Dox100 is referred as Dox of 100 μM. HCD2.5 is referred as HCD of 2.5 μM; HCD10 is referred as HCD of 10 μM; HCD25 is referred as HCD of 25 μM; HCD50 is referred as HCD of 50 μM. PG2.5 is referred as PG of 2.5 μM; PG5 is referred as PG of 5 μM; PG10 is referred as PG of 10 μM; PG20 is referred as PG of 20 μM.
(§5) In this example, the effects of HCD, PG, and Dox on the viability of A549 and anti-Dox-A549 were examined. The MTT assay was employed for this purpose. The MTT (3-(4-,5-dimethylthiazol-2-yl)-2,5-diphenyltetrazolium bromide) assay is a common colorimetric method in the field for cell viability analysis. MTT (yellow tetrazolium salt) is reduced to a purple formazan by living cells and detection to the purple formazan can be calculated as the cell viability.
(§6) Briefly, cells (A549 or Anti-Dox-A549) were seeded in 96-well plate (7×10^3 cell per well) and incubated overnight (37° C., 5% CO2).

Anti-Dox-A549 cells [4] = test: MTT assay, cell viability; details: Homo sapiens, 24 hr treatment
Protocol: as §2, §3, §4, §5, §6

IC50 (A549 cells [3]): 5 to 10 µM
IC50 (Anti-Dox-A549 cells [4]): ~100 µM
SMILES: COc1cccc2c1C(=O)c1c(O)c3c(c(O)c1C2=O)C[C@@](O)(C(=O)CO)C[C@@H]3O[C@H]1C[C@H](N)[C@H](O)[C@H](C)O1 [Dox, Doxorubicin]
cell cycle effect (A549 cells [1]; A549 cells, Dox 5, 10, or 20 μM (Table 7)): increased at Sub G1 phase and showed cell arrest at sub G1 phase
G0/G1 (%) (A549 cells [1]; Dox 5 μM): 50.3 ± 0.9 %
G2/M (%) (A549 cells [1]; Dox 5 μM): 15.2 ± 1.6 %
S (%) (A549 cells [1]; Dox 5 μM): 23.5 ± 0.7 %
Sub G1 (%) (A549 cells [1]; Dox 5 μM): 5.8 ± 0.5 %
G0/G1 (%) (A549 cells [1]; Dox 10 μM): 50.2 ± 1.4 %
G2/M (%) (A549 cells [1]; Dox 10 μM): 17 ± 0.3 %
S (%) (A549 cells [1]; Dox 10 μM): 20.3 ± 0.9 %
Sub G1 (%) (A549 cells [1]; Dox 10 μM): 7.4 ± 2.3 %
G0/G1 (%) (A549 cells [1]; Dox 20 μM): 37.3 ± 2.1 %
G2/M (%) (A549 cells [1]; Dox 20 μM): 21.5 ± 1.6%
S (%) (A549 cells [1]; Dox 20 μM): 23.5 ± 0.7 %
Sub G1 (%) (A549 cells [1]; Dox 20 μM): 9.0 ± 0.8 %
cell cycle effect (Anti-Dox-A549 cells [2]; Anti-Dox-A549 cells, Dox 5, 10, or 20 μM (Table 6)): increased at Sub G1 phase and showed cell arrest at S phase
G0/G1 (%) (Anti-Dox-A549 cells [2]; Dox 5 μM): 54.7 ± 1.3 %
G2/M (%) (Anti-Dox-A549 cells [2]; Dox 5 μM): 9.9 ± 0.7 %
S (%) (Anti-Dox-A549 cells [2]; Dox 5 μM): 24.1 ± 0.5 %
Sub G1 (%) (Anti-Dox-A549 cells [2]; Dox 5 μM): 6.4 ± 0.6 %
G0/G1 (%) (Anti-Dox-A549 cells [2]; Dox 10 μM): 62.8 ± 0.6%
G2/M (%) (Anti-Dox-A549 cells [2]; Dox 10 μM): 9.4 ± 0.9 %
S (%) (Anti-Dox-A549 cells [2]; Dox 10 μM): 19.9 ± 0.1 %
Sub G1 (%) (Anti-Dox-A549 cells [2]; Dox 10 μM): 4.6 ± 0.3 %
G0/G1 (%) (Anti-Dox-A549 cells [2]; Dox 20 μM): 58.1 ± 3.4%
G2/M (%) (Anti-Dox-A549 cells [2]; Dox 20 μM): 12.4 ± 1.5%
S (%) (Anti-Dox-A549 cells [2]; Dox 20 μM): 18.7 ± 0.4 %
Sub G1 (%) (Anti-Dox-A549 cells [2]; Dox 20 μM): 6.2 ± 0.6 %
